Reference: US8952024B2, “Herbicidal pyrimidone derivatives” (E I du Pont de Nemours and Company, priority 2009, dated 2015)

Columns and labels:
Assay in all cases: Test C plant response
Assay type in all cases: in vivo
Settings in all cases: Postemergence, scale 0 to 100
[1] = test system: Italian ryegrass (Lolium multiflorum)
Summary of the method: (§1)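 Compounds in non-phytotoxic solvent mixture with surfactant. Visual rating versus controls after 14 days in controlled environment, scale 0 (no effect) to 100 (complete control).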

[2] = test system: deadnettle (henbit deadnettle, Lamium amplexicaule)
Summary of the method: as §1

[3] = test system: windgrass (Apera spica-venti)
Summary of the method: as §1

[4] = test system: wild mustard (Sinapis arvensis)
Summary of the method: as §1

kochia (Kochia scoparia) = test system: kochia (Kochia scoparia)
Summary of the method: as §1

[5] = test system: oilseed rape (Brassica napus)
Summary of the method: as §1

[6] = test system: bromegrass (downy bromegrass, Bromus tectorum)
Summary of the method: as §1

[7] = test system: field violet (Viola arvensis)
Summary of the method: as §1

[8] = test system: spring wheat (Triticum aestivum)
Summary of the method: as §1

[9] = test system: canarygrass (Phalaris minor)
Summary of the method: as §1

[10] = test system: chickweed (common chickweed, Stellaria media)
Summary of the method: as §1

[11] = test system: bluegrass (annual bluegrass, Poa annua)
Summary of the method: as §1

[12] = test system: buckwheat (wild buckwheat, Polygonum convolvulus)
Summary of the method: as §1

[13] = test system: blackgrass (Alopecurus myosuroides)
Summary of the method: as §1

[14] = test system: field poppy (Papaver rhoeas)
Summary of the method: as §1

[15] = test system: winter barley (Hordeum vulgare)
Summary of the method: as §1

[16] = test system: Russian thistle (Salsola iberica)
Summary of the method: as §1

[17] = test system: winter wheat (Triticum aestivum)
Summary of the method: as §1

[18] = test system: wild radish (Raphanus raphanistrum)
Summary of the method: as §1

[19] = test system: green foxtail (Setaria viridis)
Summary of the method: as §1

wild oat (Avena fatua) = test system: wild oat (Avena fatua)
Summary of the method: as §1

[20] = test system: spring barley (Hordeum vulgare)
Summary of the method: as §1

[21] = test system: galium (catchweed bedstraw, Galium aparine)
Summary of the method: as §1

3-cyclohexyl-5-[(2-hydroxy-6-oxo-1-cyclohexen-1-yl)carbonyl]-2-phenyl-4(3H)-pyrimidinone [Compound 128]
40: Plant response rating: Wheat, Spring ([8]; 125 g ai/ha) | Plant response rating: Field Poppy ([14]; 62 g ai/ha) | Plant response rating: Barley, Winter ([15]; 62 g ai/ha)
15: Plant response rating: Barley, Spring ([20]; 31 g ai/ha)
10: Plant response rating: Canarygrass ([9]; 62 g ai/ha) | Plant response rating: Canarygrass ([9]; 125 g ai/ha)
65: Plant response rating: Bromegrass, Downy ([6]; 62 g ai/ha) | Plant response rating: Bromegrass, Downy ([6]; 125 g ai/ha) | Plant response rating: Bluegrass ([11]; 62 g ai/ha) | Plant response rating: Buckwheat, Wild ([12]; 16 g ai/ha) | Plant response rating: Galium ([21]; 62 g ai/ha) | Plant response rating: Galium ([21]; 125 g ai/ha)
95: Plant response rating: Deadnettle ([2]; 16 g ai/ha) | Plant response rating: Windgrass ([3]; 125 g ai/ha) | Plant response rating: Kochia (kochia (Kochia scoparia); 62 g ai/ha) | Plant response rating: Oilseed Rape ([5]; 31 g ai/ha) | Plant response rating: Chickweed ([10]; 31 g ai/ha) | Plant response rating: Chickweed ([10]; 16 g ai/ha) | Plant response rating: Russian Thistle ([16]; 62 g ai/ha) | Plant response rating: Russian Thistle ([16]; 125 g ai/ha) | Plant response rating: Radish, Wild ([18]; 31 g ai/ha) | Plant response rating: Radish, Wild ([18]; 16 g ai/ha) | Plant response rating: Radish, Wild ([18]; 62 g ai/ha) | Plant response rating: Radish, Wild ([18]; 125 g ai/ha) | Plant response rating: Foxtail, Green ([19]; 31 g ai/ha) | Plant response rating: Foxtail, Green ([19]; 16 g ai/ha) | Plant response rating: Foxtail, Green ([19]; 62 g ai/ha) | Plant response rating: Foxtail, Green ([19]; 125 g ai/ha)
70: Plant response rating: Windgrass ([3]; 31 g ai/ha) | Plant response rating: Kochia (kochia (Kochia scoparia); 16 g ai/ha) | Plant response rating: Buckwheat, Wild ([12]; 31 g ai/ha) | Plant response rating: Field Poppy ([14]; 125 g ai/ha) | Plant response rating: Oat, Wild (wild oat (Avena fatua); 125 g ai/ha)
50: Plant response rating: Bromegrass, Downy ([6]; 31 g ai/ha) | Plant response rating: Oat, Wild (wild oat (Avena fatua); 62 g ai/ha)
80: Plant response rating: Bluegrass ([11]; 125 g ai/ha) | Plant response rating: Buckwheat, Wild ([12]; 62 g ai/ha) | Plant response rating: Buckwheat, Wild ([12]; 125 g ai/ha) | Plant response rating: Russian Thistle ([16]; 31 g ai/ha) | Plant response rating: Russian Thistle ([16]; 16 g ai/ha)
25: Plant response rating: Oat, Wild (wild oat (Avena fatua); 31 g ai/ha)
90: Plant response rating: Kochia (kochia (Kochia scoparia); 31 g ai/ha) | Plant response rating: Oilseed Rape ([5]; 16 g ai/ha)
35: Plant response rating: Field Violet ([7]; 62 g ai/ha) | Plant response rating: Field Violet ([7]; 125 g ai/ha) | Plant response rating: Wheat, Spring ([8]; 62 g ai/ha) | Plant response rating: Bluegrass ([11]; 31 g ai/ha) | Plant response rating: Blackgrass ([13]; 62 g ai/ha) | Plant response rating: Blackgrass ([13]; 125 g ai/ha) | Plant response rating: Wheat, Winter ([17]; 125 g ai/ha)
5: Plant response rating: Ryegrass, Italian ([1]; 31 g ai/ha) | Plant response rating: Wheat, Spring ([8]; 16 g ai/ha) | Plant response rating: Canarygrass ([9]; 31 g ai/ha) | Plant response rating: Canarygrass ([9]; 16 g ai/ha)
85: Plant response rating: Windgrass ([3]; 62 g ai/ha)
0: Plant response rating: Ryegrass, Italian ([1]; 16 g ai/ha) | Plant response rating: Field Violet ([7]; 31 g ai/ha) | Plant response rating: Field Violet ([7]; 16 g ai/ha) | Plant response rating: Barley, Winter ([15]; 16 g ai/ha) | Plant response rating: Wheat, Winter ([17]; 16 g ai/ha) | Plant response rating: Barley, Spring ([20]; 16 g ai/ha)
20: Plant response rating: Wheat, Spring ([8]; 31 g ai/ha) | Plant response rating: Blackgrass ([13]; 31 g ai/ha) | Plant response rating: Blackgrass ([13]; 16 g ai/ha) | Plant response rating: Field Poppy ([14]; 16 g ai/ha) | Plant response rating: Barley, Winter ([15]; 31 g ai/ha) | Plant response rating: Barley, Spring ([20]; 62 g ai/ha) | Plant response rating: Galium ([21]; 16 g ai/ha)
98: Plant response rating: Deadnettle ([2]; 31 g ai/ha) | Plant response rating: Mustard, Wild ([4]; 31 g ai/ha) | Plant response rating: Mustard, Wild ([4]; 16 g ai/ha) | Plant response rating: Mustard, Wild ([4]; 62 g ai/ha) | Plant response rating: Kochia (kochia (Kochia scoparia); 125 g ai/ha) | Plant response rating: Oilseed Rape ([5]; 62 g ai/ha) | Plant response rating: Chickweed ([10]; 62 g ai/ha)
30: Plant response rating: Ryegrass, Italian ([1]; 62 g ai/ha) | Plant response rating: Ryegrass, Italian ([1]; 125 g ai/ha) | Plant response rating: Bromegrass, Downy ([6]; 16 g ai/ha) | Plant response rating: Field Poppy ([14]; 31 g ai/ha) | Plant response rating: Wheat, Winter ([17]; 31 g ai/ha) | Plant response rating: Wheat, Winter ([17]; 62 g ai/ha) | Plant response rating: Barley, Spring ([20]; 125 g ai/ha) | Plant response rating: Galium ([21]; 31 g ai/ha)
60: Plant response rating: Windgrass ([3]; 16 g ai/ha) | Plant response rating: Barley, Winter ([15]; 125 g ai/ha)
100: Plant response rating: Deadnettle ([2]; 62 g ai/ha) | Plant response rating: Deadnettle ([2]; 125 g ai/ha) | Plant response rating: Mustard, Wild ([4]; 125 g ai/ha) | Plant response rating: Oilseed Rape ([5]; 125 g ai/ha) | Plant response rating: Chickweed ([10]; 125 g ai/ha)
